{"source": "patent US20130273137A1", "about": "“DRUG DELIVERY COATING AND DEVICES” (MASSACHUSETTS EYE & EAR INFIRMARY, priority 2010, published 2013)", "origin": "cited, not measured here", "test_system": "S. aureus", "conditions": "native MIC", "data": [{"smiles": "CN[C@H](CC(C)C)C(=O)N[C@H]1C(=O)N[C@@H](CC(N)=O)C(=O)N[C@H]2C(=O)N[C@H]3C(=O)N[C@H](C(=O)N[C@H](C(=O)O)c4cc(O)cc(O)c4-c4cc3ccc4O)[C@H](O)c3ccc(c(Cl)c3)Oc3cc2cc(c3O[C@@H]2O[C@H](CO)[C@@H](O)[C@H](O)[C@H]2O[C@H]2C[C@](C)(N)[C@H](O)[C@H](C)O2)Oc2ccc(cc2Cl)[C@H]1O", "note": "[vancomycin]", "values": [{"measurement": "minimum inhibitory concentration of vancomycin against S. aureus", "value": "0.5 to 2", "unit": "µg/mL"}]}]}
